Experimental data reported in ChEMBL document CHEMBL1132071, “Benzenesulfonamide derivatives of 2-substituted 4H-3,1-benzoxazin-4-ones and benzthiazin-4-ones as inhibitors of complement C1r protease” (Bioorg Med Chem Lett, 1999).

Experiments:
[1] = target: T1, Complement C1r subcomponent (Homo sapiens, UniProt P00736); assay: Evaluated in vitro for inhibitory activity against purified human C1r protease incubated in buffer for 60 minutes
T1 sequence (P00736 whole entry): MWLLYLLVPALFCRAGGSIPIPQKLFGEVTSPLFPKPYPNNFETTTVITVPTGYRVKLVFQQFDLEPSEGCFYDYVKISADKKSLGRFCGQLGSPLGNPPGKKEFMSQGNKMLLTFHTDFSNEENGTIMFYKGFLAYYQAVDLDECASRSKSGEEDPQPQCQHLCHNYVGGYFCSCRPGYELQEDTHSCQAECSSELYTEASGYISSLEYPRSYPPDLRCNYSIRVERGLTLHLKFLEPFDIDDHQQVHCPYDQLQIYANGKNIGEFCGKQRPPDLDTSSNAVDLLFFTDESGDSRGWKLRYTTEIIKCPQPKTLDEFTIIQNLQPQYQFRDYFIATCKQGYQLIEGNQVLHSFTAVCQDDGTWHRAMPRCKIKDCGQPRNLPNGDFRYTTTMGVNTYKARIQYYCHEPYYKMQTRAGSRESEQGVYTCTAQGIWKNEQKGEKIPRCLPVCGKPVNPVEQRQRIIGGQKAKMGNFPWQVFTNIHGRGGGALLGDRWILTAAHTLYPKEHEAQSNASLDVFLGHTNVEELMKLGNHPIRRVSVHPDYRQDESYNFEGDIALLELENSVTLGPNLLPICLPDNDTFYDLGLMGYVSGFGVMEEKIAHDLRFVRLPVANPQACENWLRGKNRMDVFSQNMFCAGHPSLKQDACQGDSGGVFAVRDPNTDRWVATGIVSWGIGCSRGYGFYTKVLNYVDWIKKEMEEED

[2] = target: T1, Complement C1r subcomponent; assay: In vitro inhibition of purified human C1r protease.
[3] = (§1) Inhibitory activity against hemolysis at 200 uM using suspension of sheep erythrocytes sensitized with antibodies to sheep erythrocytes; format: functional; conditions: Ovis aries
[4] = as §1; format: functional, Ovis aries; set-up: scale not given: the % may be the effect or the level left
[5] = Compound was evaluated for inhibitory activity in hemolysis assay using suspension of sheep erythrocytes sensitized with antibodies to sheep erythrocytes; format: functional, Ovis aries
[6] = target: T2, Complement C1r subcomponent (Homo sapiens) (UniProt P00736); assay: Compound was evaluated for inhibitory activity against purified human C1r protease at 62 uM was reported after 60 min.
T2 sequence (whole entry): T1 sequence (P00736 whole entry)

[7] = target: T2, Complement C1r subcomponent (Homo sapiens); assay: Compound was evaluated for inhibitory activity against purified human C1r protease at 31.2 uM
[8] = target: T2, Complement C1r subcomponent (Homo sapiens); assay: Compound was evaluated for inhibitory activity against purified human C1r protease at 15 uM concentration
[9] = Percent of inhibition at 200 uM was determined in hemolysis assay using suspension of sheep erythrocytes sensitized with antibodies to sheep erythrocytes; format: functional, Ovis aries; set-up: scale not given: the % may be the effect or the level left

## CCN(c1nc2ccccc2c(=O)o1)S(=O)(=O)c1ccccc1
[1]
  IC50: 8.3 µM
[2]
  IC50: 3.2 µM
[3]
  inhibition at 200 µM: 86%

## CN(c1nc2ccccc2c(=O)s1)S(=O)(=O)c1ccccc1
[4]
  Control: 162%
[2]
  IC50: > 62.5 µM

## CN(c1nc2ccccc2c(=O)o1)S(=O)(=O)c1ccccc1
[4]
  Control: 162%
[1]
  IC50: 6 µM
[2]
  IC50: 4 µM

## CCN(c1nc2ccccc2c(=O)o1)S(=O)(=O)c1ccc(Cl)cc1
[1]
  IC50: 62 µM
[2]
  IC50: 30 µM

## CN(c1nc2ccccc2c(=O)o1)S(=O)(=O)c1ccccc1Br
[1]
  IC50: 25 µM
[2]
  IC50: 2.8 µM

## CN(c1nc2ccccc2c(=O)o1)S(=O)(=O)c1ccc(NC(=N)N)cc1
[1]
  IC50: 3 µM
[2]
  IC50: 1.5 µM
[5]
  IC50: 18 µM

## CN(c1nc2ccccc2c(=O)o1)S(=O)(=O)c1ccc(C#N)cc1
[2]
  IC50: 20 µM
[6]
  inhibition: 30%

## CN(c1nc2ccccc2c(=O)o1)S(=O)(=O)c1ccc(Cl)cc1
[1]
  IC50: > 62 µM
[7]
  inhibition: 40%

## Cc1ccc(S(=O)(=O)N(C)c2nc3ccccc3c(=O)o2)cc1
[2]
  IC50: 7.8 µM
[6]
  inhibition: 40%

## CN(c1nc2ccccc2c(=O)o1)S(=O)(=O)c1ccc(C(C)(C)C)cc1
[1]
  IC50: > 60 µM
[2]
  IC50: > 60 µM

## CN(c1nc2ccccc2c(=O)o1)S(=O)(=O)c1cccc(Cl)c1
[1]
  IC50: 58 µM
[2]
  IC50: 24 µM
[3]
  inhibition at 200 µM: 49%

## COc1ccc(S(=O)(=O)N(C)c2nc3ccccc3c(=O)s2)cc1
[2]
  IC50: > 62.5 µM

## CN(c1nc2ccccc2c(=O)o1)S(=O)(=O)c1ccc(Cl)c(Cl)c1
[8]
  inhibition: 20%
[1]
  IC50: > 62.5 µM

## CN(c1nc2ccccc2c(=O)o1)S(=O)(=O)c1ccc([N+](=O)[O-])cc1
[2]
  IC50: 31 µM

## CN(c1nc2ccccc2c(=O)o1)S(=O)(=O)c1cccc2ccccc12
[1]
  IC50: 10 µM
[2]
  IC50: 6 µM
[3]
  inhibition at 200 µM: 56%

## CN(c1nc2ccccc2c(=O)o1)S(=O)(=O)c1c(Cl)cccc1Cl
[1]
  IC50: > 62 µM
[2]
  IC50: 7.5 µM

## COc1ccc(S(=O)(=O)N(C)c2nc3ccccc3c(=O)o2)cc1
[1]
  IC50: 6 µM
[2]
  IC50: 0.7 µM
[3]
  inhibition at 200 µM: 80%

## CN(c1nc2ccccc2c(=O)o1)S(=O)(=O)c1ccc(N)cc1
[1]
  IC50: 62 µM
[2]
  IC50: 7 µM
[5]
  IC50: 8 µM

## N=C(N)Nc1ccc(C(=O)Oc2ccc3cc(C(=N)N)ccc3c2)cc1 [NAFAMOSTAT]
[5]
  IC50: 16.6 µM

## O=c1oc(Nc2ccccc2I)nc2cc(C(F)(F)F)ccc12
[9]
  Control: 146%
